Patent US11649431B2, “Cortical interneurons and other neuronal cells produced by the directed differentiation of pluripotent and multipotent cells” (MEMORIAL SLOAN-KETTERING CANCER CENTER, priority 2013, dated 2023)

B1: DKK1: recombinant DKK1 (Dickkopf protein 1), inhibitor of canonical Wnt signaling (protein, UniProt O94907 32-266, looked up)
Dickkopf-related protein 1: TLNSVLNSNAIKNLPPPLGGAAGHPGSAVSAAPGILYPGGNKYQTIDNYQPYPCAEDEECGTDEYCASPTRGGDAGVQICLACRKRRKRCMRHAMCCPGNYCKNGICVSSDQNHFRGEIEETITESFGNDHSTLDGYSRRTTLSSKMYHTKGQEGSVCLRSSDCASGLCCARHFWSKICKPVLKEGQVCTKHRRKGSHGLEIFQRCYCGEGLSCRIQKDHHQASNSSRLHTCQRH

Assays:
motor neurons (MNs) = details: trophic factors removed, 72 hr; cited from earlier work
[1] = tested on: human ESC (WA-09, HES-3) and iPS cells (C72, SeV6); test: FOXG1 / PAX6 induction during neural differentiation of hPSCs (immunofluorescence quantification); assay type: cell-based; details: for PAX6 expression after addition of Wnt antagonist to dual SMAD inhibition protocol: HES-3 (NKX2.1::GFP) line, FIG. 1C; for FOXG1 expression in LSB-treated cultures: Wnt antagonist added to LSB dual SMAD inhibition, XAV939 2 μM, DKK1 250 ng/ml
Text: Human ESC (lines WA-09, HES-3 (NKX2.1::GFP) and iPS cells (C72, SeV6) were maintained on mouse embryonic fibroblasts (MEFs) as described previously and dissociated with Accutase (Innovative Cell Technologies) for differentiation or dispase for passaging (Chambers et al., Nat Biotechnol 27:275-280 (2009)). Media used for differentiation included KSR-medium, N2 medium (DMEM/F12 with NaHCO3, N2B supplement (Stem Cell Technologies), and Neurobasal media with B27 (Gibco) and N2 supplements (Invitrogen) as described previously. Kriks et al., Nature 480:547-551 (2011). The small molecules compounds used included: XAV939 (2 μM; Stemgent), LDN193189 (100 nM; Stemgent), SB431542 (10 μM; Tocris), and Purmorphamine (1-2 μM; Calbiochem), ascorbic acid (200 μM) and dibutyryl-cyclic AMP (dbcAMP, 200 μM; both from Sigma). Recombinant growth factors: SHH (C25II; 50-500 ng/ml), Noggin (125 ng/ml), DKK1 (250 ng/ml), and BDNF (10 ng/ml) were purchased from R&D Systems or for FGF2 (10 ng/ml) from Promega and used at the concentrations indicated in the manuscript.
Cultures were fixed in 4% paraformaldehyde in phospate-buffered saline and processed for immunofluorescent staining and confocal microscopy. Secondary antibodies used for primary antibody detection were species-specific Alexa-dye conjugates (Invitrogen). For primary antibodies, we used antibodies to rabbit FOXG1 (gift from Eseng Lai); mouse PAX6 (DSHB); mouse NKX2.1 (Labvision); goat NKX2.1 (C-20, Santa Cruz); rabbit OLIG2 (Chemicon); goat FOXA2 (Santa Cruz); rabbit LHX6 (Abeam); mouse RAX (Abnova); rabbit GAPDH (Thermo Scientific); goat DCX (Santa Cruz); mouse TUJ1 (Covance); rabbit GABA (Sigma); mouse Nestin (Thermo Scientific); rabbit KI67 (Labvision); mouse KI67 (Dako); rabbit Calbindin (Chemicon); mouse Calretinin (Swant); chick GFP (Abeam); goat Chat (Chemicon); rat somatostatin (Chemicon); mouse TH (Abeam); rabbit NOS (Swant); mouse Parvalbumin (Chemicon); mouse PSD-95 (Zymed); guinea-pig VGLUT1 (Synaptic systems); rabbit VGAT (Synaptic systems); and mouse Gephyrin (Synaptic Systems).
FOXG1 and PAX6 quantification: Using a 20× objective, 25 fields were imaged from 3 wells and from 4 independent differentiation studies. The number of DAPI+ nuclei was used as the denominator and either FOXG1+ nuclei or PAX6+ nuclei were used for the numerator. NKX2.1::GFP co-labeling: Using a 20× objective, 25-30 fields were imaged from 4 wells from 4 independent differentiations. The number of NKX2.1::GFP+ cells was used as the denominator and the numerator chosen for each analyzed marker. As a control for each marker, secondary antibody in the absence of primary antibody was used as a negative control to designate signal specificity.

[2] = tested on: colon carcinoma cell line DLD-1; details: catenin-dependent colon carcinoma cell line; cited from earlier work
SW480 cells = details: cited from earlier work

Row | Molecule | healthy survival of MNs (motor neurons (MNs)) | effect on FOXG1 induction across independent hESC (HES-3, WA-09) and human iPSC lines (C72, SeV6) ([1]; FIG. 1E) | PAX6 expression after addition of Wnt antagonist to dual SMAD inhibition protocol [1] | FOXG1 expression in LSB-treated cultures [1] | proliferation of DLD-1 cells [2] | degradation of β-catenin (SW480 cells) | protein levels of the axin-GSK3β complex (SW480 cells)
1 | O=C1Cc2c([nH]c3ccc(Br)cc23)-c2ccccc2N1 [kenpaullone] | impressive ability to prolong |  |  |  |  |  | 
2 | Oc1nc(-c2ccc(C(F)(F)F)cc2)nc2c1CSCC2 [XAV939, 3,5,7,8-Tetrahydro-2-[4-(trifluoromethyl)phenyl]-4H-thiopyrano[4,3-d]pyrimidin-4-one] |  | consistent | did not result in a loss | greatly enhanced | inhibits proliferation | promotes the degradation | increases
3 | B1 |  |  | did not result in a loss | greatly enhanced |  |  | 
